From patent US9029389B2 (Institut Pasteur Korea, priority 2011, dated 2015)

Biological target: T1, Human 5-lipoxygenase (Homo sapiens, UniProt P09917)
T1 construct: purchased Cayman 60402; host or cells: insect cells
T1 sequence (P09917 1-674): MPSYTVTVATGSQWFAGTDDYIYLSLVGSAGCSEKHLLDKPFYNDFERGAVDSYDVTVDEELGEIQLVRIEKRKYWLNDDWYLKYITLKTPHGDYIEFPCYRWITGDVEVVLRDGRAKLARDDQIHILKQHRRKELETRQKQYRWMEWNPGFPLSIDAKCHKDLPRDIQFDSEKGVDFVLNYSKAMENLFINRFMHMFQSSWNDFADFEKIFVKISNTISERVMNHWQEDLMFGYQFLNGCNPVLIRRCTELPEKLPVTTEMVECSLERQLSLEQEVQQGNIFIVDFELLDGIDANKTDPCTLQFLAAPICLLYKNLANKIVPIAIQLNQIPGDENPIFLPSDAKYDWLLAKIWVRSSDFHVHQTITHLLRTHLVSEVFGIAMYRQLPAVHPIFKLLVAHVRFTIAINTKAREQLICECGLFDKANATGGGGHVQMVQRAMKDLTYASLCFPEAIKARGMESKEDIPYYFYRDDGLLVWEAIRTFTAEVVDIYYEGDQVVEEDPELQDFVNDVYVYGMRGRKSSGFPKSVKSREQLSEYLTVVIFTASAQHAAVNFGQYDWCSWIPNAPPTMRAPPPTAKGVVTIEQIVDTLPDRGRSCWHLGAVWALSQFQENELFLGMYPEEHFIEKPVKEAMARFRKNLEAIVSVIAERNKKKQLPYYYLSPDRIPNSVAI
Assay: Activity of compounds against 5-LO enzyme (LTB4 measurement and/or fluorescence method)
Format: biochemical
Settings: 5-LO, single concentration of 10 uM in duplicate
Experimental: The activity of compounds against 5-LO were determined by measuring LTB4 (leukotriene B4) levels and/or by a fluorescence method. Both approaches are outlined in more detail below;
Human 5-lipoxygenase (Cayman, Cat#60402) produced in insect cells was pre-incubated with compound for 15 min at RT in incubation buffer (50 mM Tris-Cl, pH 7.4, 2 mM CaCl2, 0.1 mM ATP, 1% DMSO). The enzymatic reaction was started by adding arachidonic acid to a final concentration of 3 uM. After 5 min of incubation at 37° C., the reaction was stopped by heatinactivation at 80° C. for 5 min. LTB4 levels were quantified by using LTB4 EIA kit (Cayman, Cat#520111) as instructed and/or LTB4 levelswere measured with LC/MS/MS using Quattro Premier™ XE tandem quadrupole mass spectrometer equipped with Acquity UPLC system (Waters, Milford, Mass.). The method was slightly modified as reported previously (Zweifel et al., 2008, Willey et al., 2008, Chappell et al, 2011). Briefly, chromatographic separation was carried out with Acquity UPLC BEH Shield RP18 Column (2.1 mm×50 mm, 1.7 μm particle size, Waters, Milford, Mass.). Sample injection volume was 10 μl, the column temperature was 35° C., the mobile phase A consisted of water with 0.1% formic acid and the mobile phase B consisted of acetonitrile with 0.1% formic acid. Flow rate was 0.4 mL/min and the gradient condition was as follows.
Relative quantification of LTB4 and LTB4-d4 (Internal Standard) was done using multi reaction monitoring (MRM) of the transitions of m/z 335→195 for LTB4, 339→197 for LTB4-d4 in electrospray ionization (ESI) negative mode. Desolvation temperature was 400° C., source temperature was 130° C. Capillary voltage, cone voltage, and collision voltage were 3.5 kV, 30V, and 20 eV, respectively. Nitrogen was used for desolvation (750 L/h) and cone (50 L/h) gas. Argon was used for collision gas (0.22 ml/min). The dwell time was 10 ms.
Besides the two methods quantifying LTB4 level, a fluorescence assay measuring 5-HpETE was introduced for high-throughput screening in a 384 well microplate format (Pufahl et al., 2007). For nonspecific ester cleavage of the acetate groups in H2DCFDA, the insect cell lysate expressing human 5-LO (Cayman Cat#60402) was incubated with H2DCFDA (50 mM Tris-Cl, pH 7.5, 2 mM CaCl2, 20 uM H2DCFDA, 500 mU 5-LO per reaction) for 5 minutes. Compound and enzyme mixture were pre-incubated for 5 minutes, and the enzymatic reaction was initiated by addition of ATP and arachidonic acid to a final concentration of 100 uM and 3 uM, respectively. After 5 minutes of incubation, the fluorescence was measured using Spectramax M5 (Molecular Device, Ex/Em=485 nm/530 nm). All steps were carried out at room temperature.
A total of 378 compounds were initially tested at a single concentration of 10 uM in duplicate with the results summarized in Table 1. From these 378 compounds, 53 compounds plus an additional 25 were selected for confirmation of activity by 6 or 11 point dose response in duplicate with the corresponding IC50 values outlined in Table 2.

Row | SMILES | inhibition at 10 µM [%]
1 | CCc1nc2cc([N+](=O)[O-])ccn2c1C(=O)NCc1ccc(OC(F)(F)F)cc1 [compound 150, 2-Ethyl-7-nitro-N-(4-(trifluoromethoxy)benzyl)imidazo[1,2-a]pyridine-3-carboxamide] | 40 to 69
2 | CCc1nc2ccc(C(F)(F)F)cn2c1C(=O)NCc1ccc(N2CCC(Oc3ccc(OC(F)(F)F)cc3)CC2)cc1 [compound 124, 2-Ethyl-N-(4-(4-(4-(trifluoromethoxy)phenoxy)piperidin-1-yl)benzyl)-6-(trifluoromethyl)imidazo[1,2-a]pyridine-3-carboxamide] | > 69
3 | CCc1nc2ccc(Cl)cn2c1C(=O)NCc1ccc(N2CCC(Oc3ccc(OC(F)(F)F)cc3)CC2)cc1 [compound 122, 6-Chloro-2-ethyl-N-(4-(4-(4-(trifluoromethoxy)phenoxy)piperidin-1-yl)benzyl)imidazo[1,2-a]pyridine-3-carboxamide] | 40 to 69
4 | CCc1nc2cc(Cl)ccn2c1CNc1ccc(N2CCC(c3ccc(OC(F)(F)F)cc3)CC2)cc1 [compound 376, N-((7-chloro-2-ethylimidazo[1,2-a]pyridin-3-yl)methyl)-4-(4-(4-(trifluoromethoxy)phenyl)piperidin-1-yl)aniline] | > 69
5 | CCc1nc2ccc(Cl)cn2c1C(=O)NCc1ccc(N2CCN(C)CC2)cc1 [compound 105, 6-Chloro-2-ethyl-N-(4-(4-methylpiperazin-1-yl)benzyl)imidazo[1,2-a]pyridine-3-carboxamide] | < 40
6 | CCc1nc2cc(Cl)ccn2c1C(=O)NCc1ccc(N2CC3CCCCC3C2)cc1 (centres unmarked) [compound 216, N-(4-(1H-isoindol-2(3H,3aH,4H,5H,6H,7H,7aH)-yl)benzyl)-7-chloro-2-ethylimidazo[1,2-a]pyridine-3-carboxamide] | 40 to 69
7 | CCc1nc2ccc(Cl)cn2c1C(=O)NCC1CCCc2c1cnn2-c1ccc(F)cc1 (centres unmarked) [compound 149, 6-Chloro-2-ethyl-N-((1-(4-fluorophenyl)-4,5,6,7-tetrahydro-1H-indazol-4-yl)methyl)imidazo[1,2-a]pyridine-3-carboxamide] | 40 to 69
8 | CCc1nc2ccc(Cl)cn2c1C(=O)NCc1ccc(N2CCC(C(=O)O)CC2)cc1 [compound 307, 1-(4-((6-Chloro-2-ethylimidazo[1,2-a]pyridine-3-carboxamido)methyl)phenyl)piperidine-4-carboxylic acid] | < 40
9 | CCOC(=O)C1CCN(c2ccc(CNC(=O)c3c(CC)nc4ccc(Cl)cn34)cc2)CC1 [compound 269, Ethyl1-(4-((6-chloro-2-ethylimidazo[1,2-a]pyridine-3-carboxamido)methyl)phenyl)piperidine-4-carboxylate] | 40 to 69
10 | CCc1nc2ccc(C)cn2c1C(=O)NCc1ccc2ccn(C)c2c1 [compound 60, 2-Ethyl-6-methyl-N-((1-methyl-1H-indol-6-yl)methyl)imidazo[1,2-a]pyridine-3-carboxamide] | 40 to 69
11 | Cc1nc2ccccn2c1C(=O)NCc1ccccc1 [compound 3, N-Benzyl-2-methylimidazo[1,2-a]pyridine-3-carboxamide] | < 40
12 | CCc1nc2cc(Cl)ccn2c1C(=O)NCc1ccc(-c2cccc(C)c2)cc1 [compound 86, 7-Chloro-2-ethyl-N-((3′-methylbiphenyl-4-yl)methyl)imidazo[1,2-a]pyridine-3-carboxamide] | > 69
13 | CCOC(=O)c1c(C)nc2ccccn12 [compound 1, Ethyl 2-methylimidazo[1,2-a]pyridine-3-carboxylate] | < 40
14 | Cc1nc2ccccn2c1C(=O)NCc1ccc(Oc2ccccc2)cc1 [compound 6, 2-Methyl-N-(4-phenoxybenzyl)imidazo[1,2-a]pyridine-3-carboxamide] | < 40
15 | CCc1nc2cc(Cl)ccn2c1C(=O)NCc1ccc(O)cc1 [compound 88, 7-Chloro-2-ethyl-N-(4-hydroxybenzyl)imidazo[1,2-a]pyridine-3-carboxamide] | < 40
16 | Cc1nc2c(C)cccn2c1C(=O)NCc1ccccc1 [compound 31, N-Benzyl-2,8-dimethylimidazo[1,2-a]pyridine-3-carboxamide] | < 40
17 | CCc1nc2ccc(C)cn2c1C(=O)NCc1ccc(N2CCOCC2)cc1 [compound 315, 2-ethyl-6-methyl-N-(4-morpholinobenzyl)imidazo[1,2-a]pyridine-3-carboxamide] | < 40
18 | CCc1nc2ccc(Cl)cn2c1CNCc1ccc(N(C)C)cc1 [compound 339, 4-((((6-chloro-2-ethylimidazo[1,2-a]pyridin-3-yl)methyl)amino)methyl)-N,N-dimethylaniline] | < 40
19 | CCc1nc2cc(Cl)ccn2c1C(=O)NCc1ccc(-c2ccccc2C(F)(F)F)cc1 [compound 102, 7-Chloro-2-ethyl-N-((2′-(trifluoromethyl)biphenyl-4-yl)methyl)imidazo[1,2-a]pyridine-3-carboxamide] | 40 to 69
20 | CCc1nc2cc(Cl)ccn2c1C(=O)NCc1ccc2[nH]c(CN3CCOCC3)nc2c1 [compound 196, 7-Chloro-2-ethyl-N-((2-(morpholinomethyl)-1H-benzo[d]imidazol-5-yl)methyl)imidazo[1,2-a]pyridine-3-carboxamide] | < 40
21 | COC(=O)[C@H](Cc1ccccc1)NC(=O)c1c(C)nc2ccccn12 [compound 23, (S)-Methyl 2-(2-methylimidazo[1,2-a]pyridine-3-carboxamido)-3-phenylpropanoate] | < 40
22 | CCc1nc2ccccn2c1C(=O)NCc1ccc(OCC(C)C)cc1 [compound 54, 2-Ethyl-N-(4-isobutoxybenzyl)imidazo[1,2-a]pyridine-3-carboxamide] | < 40
23 | CCc1nc2ccc(Cl)cn2c1C(=O)NCc1nc2ccc(Cl)cc2[nH]1 [compound 365, 6-chloro-N-((6-chloro-1H-benzo[d]imidazol-2-yl)methyl)-2-ethylimidazo[1,2-a]pyridine-3-carboxamide] | < 40

Same assay, conditions: 6 or 11 point dose response in duplicate

Row | SMILES | IC50 [µM]
24 | CCc1nc2ccc(C(F)(F)F)cn2c1C(=O)NCc1ccc(N2CCC(Oc3ccc(OC(F)(F)F)cc3)CC2)cc1 [compound 124, 2-Ethyl-N-(4-(4-(4-(trifluoromethoxy)phenoxy)piperidin-1-yl)benzyl)-6-(trifluoromethyl)imidazo[1,2-a]pyridine-3-carboxamide] | 1 to 20
25 | CCc1nc2cccnn2c1C(=O)N1CCC(OCc2ccc(OC(F)(F)F)cc2)CC1 [compound 387, (2-Ethylimidazo[1,2-b]pyridazin-3-yl)(4-((4-(trifluoromethoxy)benzyl)oxy)piperidin-1-yl)methanone] | > 20
26 | CCc1nc2cc(Cl)ccn2c1C(=O)NCc1ccc(-c2cccc(C)c2)cc1 [compound 86, 7-Chloro-2-ethyl-N-((3′-methylbiphenyl-4-yl)methyl)imidazo[1,2-a]pyridine-3-carboxamide] | 1 to 20
27 | CCc1nc2ccc(Cl)cn2c1CN1CCN(c2ccc(F)cc2)CC1 [compound 397, 6-chloro-2-ethyl-3-((4-(4-fluorophenyl)piperazin-1-yl)methyl)imidazo[1,2-a]pyridine] | > 20
28 | CCc1nc2ccc(Cl)cn2c1CNc1ccc(Oc2ccc(OC(F)(F)F)cc2)cc1 [compound 394, N-((6-chloro-2-ethylimidazo[1,2-a]pyridin-3-yl)methyl)-4-(4-(trifluoromethoxy)-phenoxy)aniline] | < 1
29 | CCc1nc2cc(Cl)ccn2c1C(=O)N1CCC(OCc2ccc(OC(F)(F)F)cc2)CC1 [compound 393, (7-chloro-2-ethylimidazo[1,2-a]pyridin-3-yl)(4-(4-(trifluoromethoxy)benzyloxy)piperidin-1-yl)methanone] | < 1
